Test results as given in paper PMC4775997, “Imidazopyridazine Inhibitors of Plasmodium falciparum Calcium-Dependent Protein Kinase 1 Also Target Cyclic GMP-Dependent Protein Kinase and Heat Shock Protein 90 To Kill the Parasite at Different Stages of Intracellular Development” (Antimicrobial Agents and Chemotherapy, 2016).
Like-named read-outs stand apart in the source and are kept apart here.

Legend:
P. falciparum 3D7 [1] = test: SYBR green I growth assay, wild-type parasites; format: cell-based, Plasmodium falciparum
PfPKG = biological target: T1, PfPKG (Plasmodium falciparum, UniProt Q8I719); test: Microfluidic fluorescent shift assay of cGMP-dependent protein kinase activity; format: biochemical; conditions: read-out: Enzyme inhibition IC50, PKG
T1 construct: plasmids (pTrcHisC) encoding full-length PfPKG and PfPKG T618Q with N-terminal His tags; His tag (N); made in house; host or cells: E. coli Rosetta2(DE3)

PfPKG T618Q = biological target: T2, PfPKG T618Q (Plasmodium falciparum, UniProt Q8I719, T618Q); test: biochemical; format: biochemical; conditions: for IC50: read-out: Enzyme inhibition IC50, PKG T618Q
T2 construct: plasmids (pTrcHisC) encoding full-length PfPKG and PfPKG T618Q with N-terminal His tags; His tag (N); made in house; host or cells: E. coli Rosetta2(DE3)

CDPK1 = CDPK1 (Plasmodium falciparum, UniProt P62344); test: biochemical; format: biochemical; conditions: read-out: Enzyme inhibition IC50, CDPK1
3D7 PKG T618Q = test: microbe, parasite or virus in culture; format: cell-based, Plasmodium falciparum; conditions: for EC50: read-out: Parasite inhibition EC50, 3D7 PKG T618Q; for Ratio 3D7 PKG T618Q/3D7: Table S2
P. falciparum 3D7 [2] = test: Microscopic examination of Giemsa-stained smears (stage of action); conditions: for Stage of action (before or after DNA synthesis): Table S1, ring-stage parasites, 10x EC50 for 48 h; for Stage of action: ring stage parasites treated with 10 times the 96-h EC50 for 48 h
[3] = Table S1, single experiment with duplicate samples, or mean of triplicate experiments (SD), read-out: EC50 48 hours
[4] = Table S1, single experiment with duplicate samples, or mean of triplicate experiments (SD), read-out: EC50 96 hours
[5] = Table 2, SYBR green I, 96 h, single experiment, or mean (SD) of duplicate assays, read-out: Parasite inhibition EC50, 3D7
[6] = Table 2, SYBR green I, 96 h, single experiment, or mean (SD) of duplicate assays
[7] = Plasmodium falciparum, 3D7, 48 h, read-out: EC50 after treatment for 48 h
[8] = Plasmodium falciparum, 3D7, 96 h, read-out: EC50 96 hours
[9] = Plasmodium falciparum, 3D7, 96 h, read-out: EC50 after treatment for 96 h
[10] = Plasmodium falciparum, 3D7, 96 h, read-out: Parasite inhibition EC50, 3D7
[11] = Plasmodium falciparum, 3D7, 96 h

T2 sequence (Q8I719 whole entry T618Q): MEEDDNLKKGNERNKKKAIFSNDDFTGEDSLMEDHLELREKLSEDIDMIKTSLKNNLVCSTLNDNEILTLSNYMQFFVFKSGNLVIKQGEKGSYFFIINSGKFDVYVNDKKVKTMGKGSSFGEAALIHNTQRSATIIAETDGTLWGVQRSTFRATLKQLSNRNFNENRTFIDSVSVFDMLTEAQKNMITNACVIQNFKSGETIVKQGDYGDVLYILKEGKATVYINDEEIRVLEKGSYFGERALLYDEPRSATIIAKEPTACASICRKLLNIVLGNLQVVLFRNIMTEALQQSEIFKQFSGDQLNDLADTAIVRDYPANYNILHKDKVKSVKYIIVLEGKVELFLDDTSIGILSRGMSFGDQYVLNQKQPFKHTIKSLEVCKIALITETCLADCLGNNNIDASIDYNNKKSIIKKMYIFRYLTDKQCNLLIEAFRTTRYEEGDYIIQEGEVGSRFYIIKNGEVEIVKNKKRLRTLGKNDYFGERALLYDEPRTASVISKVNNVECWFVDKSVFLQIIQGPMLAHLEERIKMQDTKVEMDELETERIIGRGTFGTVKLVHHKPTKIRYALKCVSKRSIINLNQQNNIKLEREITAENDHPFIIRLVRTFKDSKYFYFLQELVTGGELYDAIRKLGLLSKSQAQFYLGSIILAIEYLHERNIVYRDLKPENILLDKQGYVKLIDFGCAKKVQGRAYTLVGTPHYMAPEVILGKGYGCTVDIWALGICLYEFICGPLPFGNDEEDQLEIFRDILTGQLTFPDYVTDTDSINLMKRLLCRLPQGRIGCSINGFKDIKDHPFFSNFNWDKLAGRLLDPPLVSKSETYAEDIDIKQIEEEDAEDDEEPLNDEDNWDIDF
Chain of CDPK1 (P62344 whole entry): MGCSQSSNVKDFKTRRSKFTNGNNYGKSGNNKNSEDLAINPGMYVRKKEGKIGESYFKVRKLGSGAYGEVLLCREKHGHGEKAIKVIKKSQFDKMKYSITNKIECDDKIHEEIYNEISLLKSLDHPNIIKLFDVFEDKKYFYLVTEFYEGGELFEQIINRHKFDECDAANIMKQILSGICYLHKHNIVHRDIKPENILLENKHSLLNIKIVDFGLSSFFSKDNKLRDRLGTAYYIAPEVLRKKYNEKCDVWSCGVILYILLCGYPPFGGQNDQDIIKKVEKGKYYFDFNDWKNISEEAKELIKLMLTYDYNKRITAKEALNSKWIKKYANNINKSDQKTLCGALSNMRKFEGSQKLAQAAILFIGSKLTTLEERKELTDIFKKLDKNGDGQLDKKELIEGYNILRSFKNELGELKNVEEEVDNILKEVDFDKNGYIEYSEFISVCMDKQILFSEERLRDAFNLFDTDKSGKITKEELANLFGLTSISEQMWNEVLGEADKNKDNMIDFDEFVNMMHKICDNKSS

Structure (SMILES) | EC50 (P. falciparum 3D7 [1]; [3]) [µM] | EC50 (P. falciparum 3D7 [1]; [4]) [µM] | IC50 (PfPKG; Table S2) [nM] | IC50 (PfPKG T618Q; Table S2) [µM] | ratio EC5048:EC5096 (P. falciparum 3D7 [1]; Table S1) | IC50 (CDPK1; Table S2) [nM] | Selectivity PKG T618Q/PKG (PfPKG T618Q; Table S2) | further results
CN1CCC(Nc2ccc3ncc(-c4ccc(Nc5ncccc5F)nc4)n3n2)CC1 [Compound 17] | 1.15 | 0.58 | 118 | 12.1 | – | – | – | –
CC(C)CCNc1ccc(-c2cnc3ccc(NC4CCN(C)C4)nn23)cn1 (centres unmarked) [Compound 6] | 0.59 | 0.42 | – | – | 1.4 | – | – | –
CC(C)CCNc1ncc(-c2cnc3ccc(NC4CCN(C)CC4)nn23)cn1 [Compound 23] | 2.49 | 0.99 | 160 | 4.76 | 2.5 | 14 | 30 | –
Fc1cccnc1Nc1ncc(-c2cnc3ccc(NCCN4CCNCC4)nn23)cn1 [Compound 30] | 0.31 | 0.05 | – | – | 6.0 | – | – | –
Fc1cccnc1Nc1ncc(-c2cnc3ccc(NC4CCNCC4)nn23)cn1 [Compound 32] | 1.79 | 0.11 | 7 | 6.16 | 16.6 | 10 | 931 | –
Fc1cccnc1Nc1ncc(-c2cnc3ccc(NC4CCC(N5CCCC5)CC4)nn23)cn1 (centres unmarked) [Compound 39] | – | – | – | – | – | – | – | EC50 (P. falciparum 3D7 [1]; SYBR green I, 48 h incubation, mean of three independent experiments (SD), read-out: EC50 after treatment for 48 h): > 1000 µM; EC50 (P. falciparum 3D7 [1]; SYBR green I, 96 h incubation, mean of three independent experiments (SD), read-out: EC50 after treatment for 96 h): 0.02 µM; EC50 (P. falciparum 3D7 [1]; [5]): 0.034 µM; IC50 (PfPKG; Table 2, ATP at Km 20 μM): 2 nM; IC50 (PfPKG T618Q; Table 2, ATP at Km 90 μM): 25.5 µM; EC50 (3D7 PKG T618Q; [6]): 982 nM; Decrease in potency against the PKG T618Q variant parasite (3D7 PKG T618Q; versus 3D7 WT, 96 h SYBR green I): 29 fold; Stage of action (before or after DNA synthesis) (P. falciparum 3D7 [2]): late schizont; Stage of action (P. falciparum 3D7 [2]): Late schizont
Fc1cc(-c2cnc3ccc(NC4CCNCC4)nn23)ccc1Nc1ccccn1 [Compound 21] | 1.63 | 0.69 | 87 | 3.77 | 2.4 | 10 | 44 | –
Fc1cc(-c2cnc3ccc(NC4CCNCC4)nn23)cnc1Nc1cnccn1 [Compound 27] | 4.3 | 0.84 | 101 | 10 | 5.1 | 17 | 99 | –
NC1CCC(Nc2ccc3ncc(-c4ccc(Nc5ncccc5F)cc4)n3n2)CC1 (centres unmarked) [Compound 9] | 0.62 | 0.4 | 48 | 16.8 | – | – | – | –
CCCCNc1ccc(-c2cnc3ccc(N4CCC(N)CC4)nn23)cn1 [Compound 19] | 0.57 | 0.26 | – | – | 2.2 | – | – | –
CN1CCC(Nc2ccc3ncc(-c4cc(F)c(Nc5ncccc5F)c(F)c4)n3n2)CC1 [Compound 8] | 0.99 | 0.66 | 237 | 64.6 | 1.5 | 17 | 272 | –
CC(C)CCNc1ccc(-c2cnc3ccc(N4CCC(N)CC4)nn23)cn1 [Compound 12] | 0.41 | 0.25 | – | – | 1.6 | – | – | –
CNc1ccc2ncc(-c3ccc(NCCC(C)C)nc3)n2n1 [Compound 42] | – | – | – | – | – | – | – | IC50 (CDPK1; Table 2): 81 nM; EC50 (P. falciparum 3D7 [1]; [5]): 0.836 µM; 3D7 PKG T618Q/3D7 EC50 ratio (3D7 PKG T618Q; Table 2): 1.5; EC50 (3D7 PKG T618Q; [6]): 1230 nM; Ratio 3D7 PKG T618Q/3D7 (3D7 PKG T618Q): 1
Fc1cccnc1Nc1ccc(-c2cnc3ccc(NC4CCNCC4)nn23)cn1 [Compound 24] | 2.45 | 0.71 | 62 | 1.25 | 3.4 | 11 | 20 | –
CC(C)CCNc1ncc(-c2cnc3ccc(NC4CCNCC4)nn23)cn1 [Compound 29] | 3.46 | 0.64 | 93 | 0.88 | 5.4 | 18 | 10 | –
CN1CCC(Nc2ccc3ncc(-c4ccc(Nc5ncccc5F)cc4)n3n2)CC1 [Compound 18] | 1.22 | 0.6 | 404 | 15.7 | – | – | – | –
CN1CCC(Nc2ccc3ncc(-c4ccc(Nc5ccccn5)c(F)c4)n3n2)CC1 [Compound 16] | – | – | 88 | 10.6 | – | – | – | –
CC(C)CCNc1ccc(-c2cnc3ccc(NC4CCNCC4)nn23)cn1 [Compound 11] | 0.96 | 0.6 | 256 | 256 | 1.6 | 15 | 1000 | –

Structure (SMILES) | EC50 (P. falciparum 3D7 [1]; [3]) [µM] | EC50 (P. falciparum 3D7 [1]; [4]) [µM] | IC50 (PfPKG; Table S2) [nM] | IC50 (PfPKG T618Q; Table S2) [µM] | ratio EC5048:EC5096 (P. falciparum 3D7 [1]; Table S1) | IC50 (CDPK1; Table S2) [nM] | Selectivity PKG T618Q/PKG (PfPKG T618Q; Table S2) | further results
CC(C)CCNc1ccc(-c2cnc3ccc(NC4CCN(C)CC4)nn23)cn1 [Compound 43] | – | – | – | – | – | – | – | EC50 (P. falciparum 3D7 [1]; Table S2, 96 h, read-out: Parasite inhibition EC50, 3D7): 0.079 µM; EC50 (3D7 PKG T618Q; [6]): 93 nM
c1cnc(Nc2ncc(-c3cnc4ccc(NC5CCNCC5)nn34)cn2)cn1 [Compound 40] | – | 1.23 | – | – | – | – | – | –
CN1CCC(Nc2ccc3ncc(-c4cnc(Nc5ncccc5F)nc4)n3n2)CC1 [Compound 33] | – | 0.03 | 5 | 10 | – | – | – | –
Fc1cccnc1Nc1ncc(-c2cnc3ccc(NC4CCC(N5CCOCC5)CC4)nn23)cn1 (centres unmarked) [Compound 41] | – | – | – | – | – | – | – | EC50 (P. falciparum 3D7 [1]; [7]): > 1000 µM; EC50 (P. falciparum 3D7 [1]; [8]): 0.04 µM; EC50 (P. falciparum 3D7 [1]; [9]): 0.037 µM; EC50 (P. falciparum 3D7 [1]; [10]): 0.042 µM; EC50 (3D7 PKG T618Q; [11]): 923 nM; Stage of action (before or after DNA synthesis) (P. falciparum 3D7 [2]): late schizont; Developmental arrest seen in smears (P. falciparum 3D7 [2]; parasites about 21 h after invasion, 48 h at 10 times the EC50 determined by FACS (compound C 0.3 μM, compound D 4 μM)): arrested prior to merozoite egress; Stage of action (P. falciparum 3D7 [2]): Late schizont
c1nc(N2CCCCC2)ncc1-c1cnc2ccc(NC3CCNCC3)nn12 [Compound 34] | – | 1.18 | – | – | – | – | – | –
CN1CCC(Nc2ccc3ncc(-c4cc(F)c(Nc5ccccn5)c(F)c4)n3n2)CC1 [Compound 2] | 1.28 | 1.04 | 69 | 12.8 | – | – | – | –
Fc1cc(-c2cnc3ccc(NC4CCNCC4)nn23)cnc1Nc1ccccn1 [Compound 25] | 1.96 | 0.54 | 54 | 9.93 | 3.6 | 13 | 182 | –
CC(C)CCNc1ccc(-c2cnc3ccc(N4CCC(N(C)C)CC4)nn23)cn1 [Compound 5] | 0.54 | 0.39 | – | – | 1.4 | – | – | –
CC(C)CNc1ncc(-c2cnc3ccc(NC4CCN(C)CC4)nn23)cn1 [Compound 44] | – | – | – | – | – | – | – | IC50 (CDPK1; Table 2): 65 nM; EC90 (P. falciparum 3D7 [1]; 3D7 parasites): 650 nM; EC50 (P. falciparum 3D7 [1]; [5]): 0.236 µM; 3D7 PKG T618Q/3D7 EC50 ratio (3D7 PKG T618Q; Table 2): 2.0; EC50 (3D7 PKG T618Q; [6]): 477 nM; Ratio 3D7 PKG T618Q/3D7 (3D7 PKG T618Q): 2
CC(C)CCNc1ncc(-c2cnc3ccc(NC4CCC(N)CC4)nn23)cn1 (centres unmarked) [Compound 37] | – | 0.65 | – | – | – | – | – | –
c1ccc(Nc2ncc(-c3cnc4ccc(NC5CCNCC5)nn34)cn2)nc1 [Compound 26] | 0.83 | 0.2 | 20 | 3.28 | 4.2 | 9 | 161 | –
CN1CCC(Nc2ccc3ncc(-c4cnc(Nc5cnccn5)c(F)c4)n3n2)CC1 [Compound 15] | 1.74 | 0.96 | 249 | 51.3 | 1.9 | 20 | 206 | –
CCCCNc1ccc(-c2cnc3ccc(N4CCN(C)CC4)nn23)cn1 [Compound 14] | 2.1 | 1.18 | – | – | 1.8 | – | – | –
c1ccc(-n2cc(-c3cnc4ccc(NC5CCNCC5)nn34)cn2)cc1 [Compound 10] | 0.72 | 0.46 | – | – | 1.6 | – | – | –
NC1CCC(Nc2ccc3ncc(-c4cnc(Nc5ncccc5F)nc4)n3n2)CC1 (centres unmarked) [Compound 36] | – | – | – | – | – | – | – | EC50 (P. falciparum 3D7 [1]; [7]): > 1000 µM; EC50 (P. falciparum 3D7 [1]; [8]): 0.02 µM; EC50 (P. falciparum 3D7 [1]; [9]): 0.023 µM; EC50 (P. falciparum 3D7 [1]; [10]): 0.034 µM; EC50 after treatment for 48 h (P. falciparum 3D7 [1]; SYBR green I, 48 h incubation, mean of three independent experiments (SD)): not able to be determined with any accuracy; EC50 (3D7 PKG T618Q; [11]): 901 nM; Stage of action (before or after DNA synthesis) (P. falciparum 3D7 [2]): late schizont; Stage of action (P. falciparum 3D7 [2]): Late schizont
CN1CCC(Nc2ccc3ncc(-c4ccc(Nc5cnccn5)cc4)n3n2)CC1 [Compound 3] | 0.76 | 0.61 | – | – | 1.3 | – | – | –
Fc1cccnc1Nc1ccc(-c2cnc3ccc(NC4CCNCC4)nn23)cc1 [Compound 13] | 1.25 | 0.76 | 162 | 3.68 | 1.7 | 14 | 23 | –
